# Values quoted from earlier work, collected in US10858659B2, “Biosynthetic gene cluster of carrimycin” (SHENYANG FUYANG PHARMACEUTICAL TECHNOLOGY CO., LTD., priority 2015, dated 2020).
# Assays:
# [1] = in vivo
substance,measurement,setting,value
Carrimycin,in-vivo retention time,,long
same,absolute bioavailability,in vivo,high
same,elimination half-life,in vivo,long
same,tissue concentration compared with blood plasma concentration,in vivo,higher than blood plasma concentration
same,tissue distribution,in vivo,wide
same,tissue penetrability,in vivo,high
same,oral administration absorption speed,"in vivo, po",high
same,adverse reaction rate,[1],low
same,injury to livers,[1],little
same,safety,[1],good
